Entries after “also recorded” stand apart in the source; their conditions may differ.
Tests used:
5HT5a = biological target: T1, 5HT5a (Homo sapiens, UniProt P47898); experiment: NIMH PDSP receptor binding, 5HT5a; conditions: [3H]LSD, read-out: % Inhibition of Binding at 10 µM D-473
T1 construct: purchased NIMH PDSP

Alpha1D = biological target: T2, Alpha1D (Homo sapiens, UniProt P25100); experiment: NIMH PDSP receptor binding, Alpha1D; conditions: [3H]Prazosin, read-out: % Inhibition of Binding at 10 µM D-473
T2 construct: purchased NIMH PDSP

Alpha1A = biological target: T3, Alpha1A (Homo sapiens, UniProt P35348); experiment: NIMH PDSP receptor binding, Alpha1A; conditions: [3H]Prazosin, read-out: % Inhibition of Binding at 10 µM D-473
T3 construct: purchased NIMH PDSP

Alpha2A = biological target: T4, Alpha2A (Homo sapiens, UniProt P08913); experiment: NIMH PDSP receptor binding, Alpha2A; conditions: [3H]Clonidine, read-out: % Inhibition of Binding at 10 µM D-473
T4 construct: purchased NIMH PDSP

D3 = biological target: T5, D3 (Homo sapiens, UniProt P35462); experiment: NIMH PDSP receptor binding, D3; conditions: [3H]N-methylspiperone, read-out: % Inhibition of Binding at 10 µM D-473
T5 construct: purchased NIMH PDSP

5HT1b = biological target: T6, 5HT1b (Homo sapiens, UniProt P28222); experiment: NIMH PDSP receptor binding, 5HT1b; conditions: [3H]GR-125743, read-out: % Inhibition of Binding at 10 µM D-473
T6 construct: purchased NIMH PDSP

Alpha2B = biological target: T7, Alpha2B (Homo sapiens, UniProt P18089); experiment: NIMH PDSP receptor binding, Alpha2B; conditions: [3H]Clonidine, read-out: % Inhibition of Binding at 10 µM D-473
T7 construct: purchased NIMH PDSP

[1] = test system: locomotor activity (horizontal activity); experiment: Locomotor activity in rats; format: in vivo; conditions: rat; 25 mg/kg oral; 2 h post administration; vs vehicle
Method: Sprague Dawley Rats were tested at 25 mg/kg oral dose of D-473 to monitor changes in any locomotor activity in acrylic Auto-Track/Opto-Varimex-4 System (Columbus Instrument; Columbus, Ohio). The purpose was to evaluate locomotor activity of the same doses of drug that were used in the forced swim test. Rats were acclimated in the test chambers for 1 h prior to oral administration of D-473. Locomotor activity of the drug was measured for a total of two hour post administration of the drug which corresponded to the time of measurement in the forced swimming experiment. GBR 12909 was studied as a control drug known to stimulate and was administered i.p. as in published studies; vehicle was orally administered.

Alpha2C = Alpha2C (Homo sapiens, UniProt P18825); experiment: NIMH PDSP receptor binding, Alpha2C; conditions: [3H]Clonidine
duration of immobility = experiment: Forced swim test in rats after oral administration; format: in vivo; conditions: rat, sub-chronic
Method: The experiment was carried out in the same way as described in our previous publications according to the Porsolt protocol, [30]. The subjects were male Sprague Dawley rats (Harlam Sprague Dawley Inc., Indianapolis, Ind., USA) weighing 200–225 g housed in cages for at least 1 week prior to testing. Animals were maintained in a temperature-controlled environment under a 12 hr light-dark cycle. All subjects were naive and were used only once. Rats were transported to the testing room at least for one hour prior to testing for acclimatization and adaptation purposes. Experimental sessions were conducted between 9 AM to 2 PM daily. Animals were assigned randomly and were placed individually in a glass cylinder (24.5 cm×35.5 cm) filled with water at room temperature to a depth of 22 cm. All the test sessions were recorded by video cameras. The water was changed in the beginning of each session and the temperature was maintained constant at 24–25°C. Rats were judged to be immobile if they made only minimal movement, barely keeping afloat. The test procedure consisted of a pretest and test session separated by 24 h. During the pretest period, rats were placed in the swim chamber for 15 min. Followed by the initial swim exposure; rats were patted dry and were transferred to the individual cages. Drugs or vehicle were then orally administered (p.o) 15 min after the initial swim exposure and were then transported to their home cages. On the following day the rats were brought back to the testing room at least 1 h before the beginning of test session. Rats were administered either drugs or vehicle 1 h before the swim test. Each rat underwent a 5-min swim session, which was videotaped and scored later. In the case of imipramine, pretreatment time was 30 min. Drug solutions were prepared freshly on the test days. Compound D-473 was dissolved in 3% beta-hydroxy propyl cyclodextrin solution. All drug and vehicle preparations were administered orally. D-473 was administered at a dose of 5, 10, 25 and 50 mg/kg and the volume was maintained at 1.2 mL/rat. Drug or vehicle was administered 1 h prior to testing for forced swimming. An individual, blinded to the treatment, scored the videotapes for immobility. Immobility scores were analyzed by one way ANOVA test. Behavioral results were analyzed with Prism 6.0 (GraphPad Software, San Diego, CA). The immobility time for forced swimming test was analyzed by one-way ANOVA (analysis of variance) followed by post Dunnett’s multiple comparison test vs. vehicle. Data for vehicle was used as negative control, respectively. Statistical significance was assumed in analysis if p≤0.05.

Sequence of Alpha2C (P18825 whole entry): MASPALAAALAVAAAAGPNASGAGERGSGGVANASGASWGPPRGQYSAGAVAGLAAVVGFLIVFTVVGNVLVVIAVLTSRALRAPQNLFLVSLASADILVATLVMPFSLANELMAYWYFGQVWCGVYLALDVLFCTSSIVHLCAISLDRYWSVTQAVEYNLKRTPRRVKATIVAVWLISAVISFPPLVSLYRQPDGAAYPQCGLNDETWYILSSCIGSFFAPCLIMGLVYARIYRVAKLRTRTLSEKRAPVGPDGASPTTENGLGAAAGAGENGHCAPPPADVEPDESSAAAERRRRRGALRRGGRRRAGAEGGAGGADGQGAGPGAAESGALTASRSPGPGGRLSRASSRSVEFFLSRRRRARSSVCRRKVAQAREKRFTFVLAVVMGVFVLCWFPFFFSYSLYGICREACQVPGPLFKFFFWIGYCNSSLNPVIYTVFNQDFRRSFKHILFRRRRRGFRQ
T6 sequence (P28222 whole entry): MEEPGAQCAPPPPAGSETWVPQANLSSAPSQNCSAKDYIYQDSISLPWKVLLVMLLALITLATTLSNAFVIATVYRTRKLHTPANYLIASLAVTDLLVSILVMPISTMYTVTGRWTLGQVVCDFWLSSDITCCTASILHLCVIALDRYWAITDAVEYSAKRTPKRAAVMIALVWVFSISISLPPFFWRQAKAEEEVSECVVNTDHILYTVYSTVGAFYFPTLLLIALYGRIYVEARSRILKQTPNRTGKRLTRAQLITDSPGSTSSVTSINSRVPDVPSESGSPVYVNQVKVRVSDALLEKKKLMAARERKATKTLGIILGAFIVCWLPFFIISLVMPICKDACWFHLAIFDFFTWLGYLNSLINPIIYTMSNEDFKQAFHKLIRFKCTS
T3 sequence (P35348 whole entry): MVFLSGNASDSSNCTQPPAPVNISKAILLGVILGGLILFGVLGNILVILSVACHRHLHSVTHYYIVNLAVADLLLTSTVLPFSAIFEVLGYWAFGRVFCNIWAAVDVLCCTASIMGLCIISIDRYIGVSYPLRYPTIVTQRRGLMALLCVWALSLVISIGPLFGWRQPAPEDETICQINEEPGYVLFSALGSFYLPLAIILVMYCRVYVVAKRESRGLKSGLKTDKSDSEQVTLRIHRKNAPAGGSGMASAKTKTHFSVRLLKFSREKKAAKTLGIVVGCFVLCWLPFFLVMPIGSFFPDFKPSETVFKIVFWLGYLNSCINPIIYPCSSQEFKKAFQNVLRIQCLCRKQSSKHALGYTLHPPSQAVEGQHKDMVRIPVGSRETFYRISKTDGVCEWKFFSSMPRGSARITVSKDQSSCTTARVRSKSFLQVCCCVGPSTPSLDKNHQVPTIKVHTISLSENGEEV
T4 sequence (P08913 whole entry): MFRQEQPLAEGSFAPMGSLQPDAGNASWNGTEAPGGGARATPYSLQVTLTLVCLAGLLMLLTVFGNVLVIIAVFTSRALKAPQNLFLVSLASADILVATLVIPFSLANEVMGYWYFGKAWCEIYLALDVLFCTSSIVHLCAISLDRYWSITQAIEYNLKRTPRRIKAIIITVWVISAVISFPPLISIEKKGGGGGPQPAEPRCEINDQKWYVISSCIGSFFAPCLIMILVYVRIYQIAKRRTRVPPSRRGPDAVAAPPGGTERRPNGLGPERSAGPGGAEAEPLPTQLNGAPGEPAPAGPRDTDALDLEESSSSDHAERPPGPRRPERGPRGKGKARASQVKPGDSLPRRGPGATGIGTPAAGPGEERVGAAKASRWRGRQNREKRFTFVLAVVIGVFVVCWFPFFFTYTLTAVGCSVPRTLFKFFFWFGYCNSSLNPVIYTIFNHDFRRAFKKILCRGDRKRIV
T5 sequence (P35462 whole entry): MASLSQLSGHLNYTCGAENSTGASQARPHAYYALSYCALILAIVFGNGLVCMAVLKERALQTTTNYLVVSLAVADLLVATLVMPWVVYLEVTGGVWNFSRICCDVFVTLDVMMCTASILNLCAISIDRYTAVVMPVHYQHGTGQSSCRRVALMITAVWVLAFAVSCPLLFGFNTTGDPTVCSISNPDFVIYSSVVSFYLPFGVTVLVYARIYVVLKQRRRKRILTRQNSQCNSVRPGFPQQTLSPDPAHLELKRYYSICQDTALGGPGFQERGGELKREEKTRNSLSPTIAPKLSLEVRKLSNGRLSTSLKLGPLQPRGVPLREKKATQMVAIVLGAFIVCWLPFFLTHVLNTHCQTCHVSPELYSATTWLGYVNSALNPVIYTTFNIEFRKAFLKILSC
T7 sequence (P18089 whole entry): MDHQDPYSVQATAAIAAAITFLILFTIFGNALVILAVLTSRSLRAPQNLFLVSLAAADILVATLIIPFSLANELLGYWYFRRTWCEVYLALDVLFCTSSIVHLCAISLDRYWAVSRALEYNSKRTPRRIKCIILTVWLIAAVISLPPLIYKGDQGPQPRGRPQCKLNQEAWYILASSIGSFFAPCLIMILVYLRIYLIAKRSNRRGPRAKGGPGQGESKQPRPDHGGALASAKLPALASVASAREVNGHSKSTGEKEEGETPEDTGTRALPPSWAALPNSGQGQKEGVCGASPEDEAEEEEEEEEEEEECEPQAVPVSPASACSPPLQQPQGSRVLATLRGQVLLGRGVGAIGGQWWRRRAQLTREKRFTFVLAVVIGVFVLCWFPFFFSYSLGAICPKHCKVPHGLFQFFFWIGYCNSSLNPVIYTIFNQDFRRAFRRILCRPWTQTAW
T2 sequence (P25100 whole entry): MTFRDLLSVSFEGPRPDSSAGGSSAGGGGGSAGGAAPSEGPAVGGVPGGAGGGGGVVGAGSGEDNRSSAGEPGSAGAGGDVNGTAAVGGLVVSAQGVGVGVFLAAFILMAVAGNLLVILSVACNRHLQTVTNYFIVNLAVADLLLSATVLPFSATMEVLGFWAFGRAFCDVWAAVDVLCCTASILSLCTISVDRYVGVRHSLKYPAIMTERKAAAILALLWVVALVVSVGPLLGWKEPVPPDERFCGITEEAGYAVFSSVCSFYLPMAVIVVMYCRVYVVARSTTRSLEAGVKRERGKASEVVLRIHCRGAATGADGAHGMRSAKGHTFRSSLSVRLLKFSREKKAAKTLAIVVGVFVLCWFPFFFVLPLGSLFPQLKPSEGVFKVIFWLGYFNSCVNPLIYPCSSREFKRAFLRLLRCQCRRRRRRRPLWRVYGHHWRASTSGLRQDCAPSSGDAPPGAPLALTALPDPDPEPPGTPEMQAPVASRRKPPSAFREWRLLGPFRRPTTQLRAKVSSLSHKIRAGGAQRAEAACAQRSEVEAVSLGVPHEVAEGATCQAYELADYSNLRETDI
T1 sequence (P47898 whole entry): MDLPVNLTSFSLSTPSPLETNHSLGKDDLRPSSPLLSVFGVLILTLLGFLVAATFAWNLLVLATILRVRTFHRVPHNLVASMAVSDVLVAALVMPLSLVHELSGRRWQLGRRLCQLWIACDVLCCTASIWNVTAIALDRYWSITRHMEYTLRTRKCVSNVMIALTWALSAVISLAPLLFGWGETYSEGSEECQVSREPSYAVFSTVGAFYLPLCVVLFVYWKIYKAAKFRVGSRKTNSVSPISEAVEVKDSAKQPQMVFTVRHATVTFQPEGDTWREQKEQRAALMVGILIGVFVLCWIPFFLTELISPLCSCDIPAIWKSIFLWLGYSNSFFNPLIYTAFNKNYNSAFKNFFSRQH

For `COc1ccc(CN[C@@H]2CO[C@H](C(c3ccc(F)cc3)c3ccc(F)cc3)C[C@H]2O)cc1` [Compound D-473, (2S,4R,5R)-2-(bis(4-fluorophenyl)methyl)-5-((4-methoxybenzyl)amino)tetrahydro-2H-pyran-4-ol], the inhibition at 10 µM (5HT5a) was 19.5%, the inhibition at 10 µM (Alpha1D) was 41.8% and the inhibition at 10 µM (Alpha1A) was 23.6%. It also gave an inhibition at 10 µM (Alpha2A) of 14.5%, an inhibition at 10 µM (D3) of 30.8% and an inhibition at 10 µM (5HT1b) of 14.2%. The inhibition at 10 µM (Alpha2B) was 25.4%, the “Locomotor activity (horizontal activity)” value [1] was “statistically indistinguishable from vehicle” and the inhibition at 10 µM (Alpha2C; 10 µM, read-out: % Inhibition of Binding at 10 µM D-473) was 61%. The Ki (Alpha2C; secondary assay, read-out: Ki for D-473) was over 10 µM, the “Duration of immobility in the forced swimming test” value (“Duration of immobility” below) (duration of immobility; 5 mg/kg p.o., vs vehicle) was “did not produce significant reduction in immobility” and the “Duration of immobility” value (duration of immobility; 10 mg/kg p.o., vs vehicle (P<0.01), 10 mg/kg) was “robust, statistically significant effect; also recorded: statistically significant different compared to vehicle”. For the same compound, the “Duration of immobility” value (duration of immobility; 25 mg/kg p.o., vs vehicle (P<0.01)) was “statistically significant different compared to vehicle” and the “Duration of immobility” value (duration of immobility; 50 mg/kg p.o., vs vehicle (P<0.01)) was “statistically significant different compared to vehicle”.

Reference: paper PMC4245125, “Pharmacological and Behavioral Characterization of D-473, an Orally Active Triple Reuptake Inhibitor Targeting Dopamine, Serotonin and Norepinephrine Transporters” (PLoS ONE, 2014)
